Source: patent US7378411B2, “Substituted thienopyrimidinones as a mitotic kinesin inhibitor” (Merck & Co., Inc., priority 2001, dated 2008)

What follows are compounds tested against T1, human KSP motor domain (Homo sapiens, UniProt P52732) (assay: Kinesin ATPase In Vitro Assay). Conditions: KSP(367H) motor domain with microtubules, 1 mM ATP, 23° C.; free phosphate by quinaldine red/ammonium molybdate.
T1 construct: were used to amplify the motor domain and the neck linker region; made in house; host or cells: E. coli BL21 (DE3), pRSETa
T1 sequence (P52732 18-359 limits assumed): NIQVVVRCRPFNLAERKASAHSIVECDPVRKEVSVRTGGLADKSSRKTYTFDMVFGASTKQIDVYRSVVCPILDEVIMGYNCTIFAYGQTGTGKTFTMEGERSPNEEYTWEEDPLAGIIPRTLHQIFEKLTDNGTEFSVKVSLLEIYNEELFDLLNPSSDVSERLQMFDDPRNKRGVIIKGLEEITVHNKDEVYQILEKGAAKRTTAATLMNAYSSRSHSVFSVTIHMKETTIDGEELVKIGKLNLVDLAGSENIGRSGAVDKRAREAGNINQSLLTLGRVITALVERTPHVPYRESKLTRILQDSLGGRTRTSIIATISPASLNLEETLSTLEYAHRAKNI
Assay type: biochemical
From the text: I. Kinesin ATPase In Vitro Assay
Cloning and Expression of Human Poly-histidine Tagged KSP Motor Domain (KSP(367H))
Plasmids for the expression of the human KSP motor domain construct were cloned by PCR using a pBluescript full length human KSP construct (Blangy et al., Cell, vol. 83, pp 1159-1169, 1995) as a template. The N-terminal primer 5′-[…] (SEQ.ID.NO.:) and the C-terminal primer 5′-[…] […] (SEQ.ID.NO.:) were used to amplify the motor domain and the neck linker region. The PCR products were digested with AseI and XhoI, ligated into the NdeIl/XhoI digestion product of pRSETa (Invitrogen) and transformed into E. coli BL21 (DE3).
Cells were grown at 37° C. to an OD600 of 0.5. After cooling the culture to room temperature expression of KSP was induced with 100 μM IPTG and incubation was continued overnight. Cells were pelleted by centrifugation and washed once with ice-cold PBS. Pellets were flash-frozen and stored −80° C.
Cell pellets were thawed on ice and resuspended in lysis buffer (50 mM K-HEPES, pH 8.0, 250 mM KCl, 0.1% Tween, 10 mM imidazole, 0.5 mM Mg-ATP, 1 mM PMSF, 2 mM benzimidine, 1× complete protease inhibitor cocktail (Roche)). Cell suspensions were incubated with 1 mg/ml lysozyme and 5 mM β-mercaptoethanol on ice for 10 minutes, followed by sonication (3×30 sec). All subsequent procedures were performed at 4° C. Lysates were centrifuged at 40,000×g for 40 minutes. Supernatants were diluted and loaded onto an SP Sepharose column (Pharmacia, 5 ml cartridge) in buffer A (50 mM K-HEPES, pH 6.8, 1 mM MgCl2, 1 mM EGTA, 10 μM Mg-ATP, 1 mM DTT) and eluted with a 0 to 750 mM KCl gradient in buffer A. Fractions containing KSP were pooled and incubated with Ni-NTA resin (Qiagen) for one hour. The resin was washed three times with buffer B (Lysis buffer minus PMSF and protease inhibitor cocktail), followed by three 15-minute incubations and washes with buffer B. Finally, the resin was incubated and washed for 15 minutes three times with buffer C (same as buffer B except for pH 6.0) and poured into a column. KSP was eluted with elution buffer (identical to buffer B except for 150 mM KCl and 250 mM imidazole). KSP-containing fractions were pooled, made 10% in sucrose, and stored at −80° C.
Microtubules are prepared from tubulin isolated from bovine brain. Purified tubulin (>97% MAP-free) at 1 mg/ml is polymerized at 37° C. in the presence of 10 μM paclitaxel, 1 mM DTT, 1 mM GTP in BRB80 buffer (80 mM K-PIPES, 1 mM EGTA, 1 mM MgCl2 at pH 6.8). The resulting microtubules are separated from non-polymerized tubulin by ultracentrifugation and removal of the supernatant. The pellet, containing the microtubules, is gently resuspended in 10 μM paclitaxel, 1 mM DTT, 50 μg/ml ampicillin, and 5 μg/ml chloramphenicol in BRB80.
The kinesin motor domain is incubated with microtubules, 1 mM ATP (1:1 MgCl2: Na-ATP), and compound at 23° C. in buffer containing 80 mM K-HEPES (pH 7.0), 1 mM EGTA, 1 mM DTT, 1 mM MgCl2, and 50 mM KCl. […] Free phosphate from the ATP hydrolysis reaction is measured via a quinaldine red/ammonium molybdate assay by adding 150 μl of quench C buffer containing a 2:1 ratio of quench A:quench B. Quench A contains 0.1 mg/ml quinaldine red and 0.14% polyvinyl alcohol; quench B contains 12.3 mM ammonium molybdate tetrahydrate in 1.15 M sulfuric acid. The reaction is incubated for 10 minutes at 23° C., and the absorbance of the phospho-molybdate complex is measured at 540 nm.

IC50, ≤ 50 µM:
CCC(c1nc2ccsc2c(=O)n1Cc1ccccc1)N(CCN(C)C)C(=O)c1ccc(Br)cc1 (centres unmarked) [Compound 1-8, N-[1-(3-Benzyl-4-oxo-3,4-dihydrothieno[3,2-d]pyrimidin-2-yl)propyl]-4-bromo-N-[2-(dimethylamino)ethyl]benzamide]
CCC(c1nc2sc(Br)c(Br)c2c(=O)n1Cc1ccccc1)N(CCN(C)C)C(=O)c1ccc(Br)cc1 (centres unmarked) [Compound 2-9, N-[1-(3-benzyl-5,6-dibromo-4-oxo-3,4-dihydrothieno[2,3-d]pyrimidin-2-yl)propyl]-4-bromo-N-[2-(dimethylamino)ethyl]benzamide]
CCC(c1nc2sc(Br)cc2c(=O)n1Cc1ccccc1)N(CCN(C)C)C(=O)c1ccc(Br)cc1 (centres unmarked) [Compound 2-10, N-[1-(3-benzyl-6-bromo-4-oxo-3,4-dihydrothieno[2,3-d]pyrimidin-2-yl)propyl]-4-bromo-N-[2-(dimethylamino)ethyl]benzamide]
CCC(c1nc2sccc2c(=O)n1Cc1ccccc1)N(CCN(C)C)C(=O)c1ccc(Br)cc1 (centres unmarked) [Compound 3-2, N-[1-(3-benzyl-4-oxo-3,4-dihydrothieno[2,3-d]pyrimidin-2-yl)propyl]-4-bromo-N-[2-(dimethylamino)ethyl]benzamide]
CCC(c1nc2sccc2c(=O)n1Cc1ccccc1)N(CCN(C)C)Cc1ccc(Br)cc1 (centres unmarked) [Compound 4-1, 3-benzyl-2-(1-{(4-bromobenzyl)[2-(dimethylamino)ethyl]amino}propyl)thieno[2,3-d]pyrimidin-4(3H)-one]
